The target of data set [1] is T1, Photoreceptor-specific nuclear receptor (Homo sapiens, UniProt Q9Y5X4). The data set is classed as functional.
For a further data set, the target named is Large T antigen (Simian virus 40, UniProt P03070). It is filed as functional, Betapolyomavirus macacae.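 Further: Confirmatory-stage PubChem screen for compounds that inhibit SV40 T antigen.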
The next data set concerns the target T2, Estrogen receptor (Homo sapiens, UniProt P03372).
T2 sequence (P03372 whole entry): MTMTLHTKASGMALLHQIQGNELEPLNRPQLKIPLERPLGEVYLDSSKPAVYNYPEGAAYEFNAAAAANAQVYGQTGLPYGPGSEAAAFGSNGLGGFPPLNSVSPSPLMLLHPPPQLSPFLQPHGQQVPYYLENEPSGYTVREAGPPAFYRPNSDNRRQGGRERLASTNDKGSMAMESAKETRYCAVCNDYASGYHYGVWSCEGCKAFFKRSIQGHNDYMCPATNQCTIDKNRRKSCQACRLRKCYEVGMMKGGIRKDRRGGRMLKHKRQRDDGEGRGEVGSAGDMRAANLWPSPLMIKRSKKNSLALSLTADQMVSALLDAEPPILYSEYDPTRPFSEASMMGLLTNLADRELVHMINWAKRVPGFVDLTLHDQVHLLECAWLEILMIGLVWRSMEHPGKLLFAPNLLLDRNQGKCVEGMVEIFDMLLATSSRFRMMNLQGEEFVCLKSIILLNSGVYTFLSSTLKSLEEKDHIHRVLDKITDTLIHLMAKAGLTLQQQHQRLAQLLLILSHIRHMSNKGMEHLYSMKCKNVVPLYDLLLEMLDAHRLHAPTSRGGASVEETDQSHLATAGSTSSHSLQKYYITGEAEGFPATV

For data set [2], the target named is T3, Estrogen receptor beta (Homo sapiens, UniProt Q92731).
T3 sequence (Q92731 whole entry): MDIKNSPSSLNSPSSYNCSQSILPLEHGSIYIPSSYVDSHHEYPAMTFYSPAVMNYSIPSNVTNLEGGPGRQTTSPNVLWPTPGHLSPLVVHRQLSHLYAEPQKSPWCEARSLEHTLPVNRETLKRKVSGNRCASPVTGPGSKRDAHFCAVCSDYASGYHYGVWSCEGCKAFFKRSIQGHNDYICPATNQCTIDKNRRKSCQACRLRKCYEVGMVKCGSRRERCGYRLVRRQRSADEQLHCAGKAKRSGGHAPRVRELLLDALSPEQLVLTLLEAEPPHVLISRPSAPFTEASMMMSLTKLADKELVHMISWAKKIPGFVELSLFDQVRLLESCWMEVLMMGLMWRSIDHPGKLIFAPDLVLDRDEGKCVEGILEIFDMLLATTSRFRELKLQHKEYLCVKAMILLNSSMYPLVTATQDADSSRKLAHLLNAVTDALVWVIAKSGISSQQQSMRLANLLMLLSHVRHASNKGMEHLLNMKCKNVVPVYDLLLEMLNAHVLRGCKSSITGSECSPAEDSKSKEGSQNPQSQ
Data set [3] has as its target T3, Estrogen receptor beta. As to the kind of experiment: ERβ–SRC-3 coactivator interaction inhibitors, confirmation, orthogonal assay, biochemical, ELISA, streptavidin-HRP readout (AID 1060). In general terms: In an ELISA, binding on a coated surface is turned into a signal by an enzyme label.
Data set [4] deals with T4, Peroxisome proliferator-activated receptor gamma/Nuclear receptor corepressor 2 (Homo sapiens, UniProt P37231+Q9Y618). The data set is classed as functional.
T4 sequence (P37231 whole entry): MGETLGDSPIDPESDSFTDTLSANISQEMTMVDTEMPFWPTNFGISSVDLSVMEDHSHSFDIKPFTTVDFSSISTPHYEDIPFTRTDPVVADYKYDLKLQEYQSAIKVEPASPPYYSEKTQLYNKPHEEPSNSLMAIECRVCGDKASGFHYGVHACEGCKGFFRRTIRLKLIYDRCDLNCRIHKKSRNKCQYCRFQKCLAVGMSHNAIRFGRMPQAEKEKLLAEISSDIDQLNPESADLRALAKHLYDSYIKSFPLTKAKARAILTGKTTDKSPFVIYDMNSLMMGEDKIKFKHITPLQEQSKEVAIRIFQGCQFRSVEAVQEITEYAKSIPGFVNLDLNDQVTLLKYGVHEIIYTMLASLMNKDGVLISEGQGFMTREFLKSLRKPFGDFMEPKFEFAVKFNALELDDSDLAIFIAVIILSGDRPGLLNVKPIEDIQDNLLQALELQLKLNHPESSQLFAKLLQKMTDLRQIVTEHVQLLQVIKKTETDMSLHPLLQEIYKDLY
T4 sequence (Q9Y618 whole entry): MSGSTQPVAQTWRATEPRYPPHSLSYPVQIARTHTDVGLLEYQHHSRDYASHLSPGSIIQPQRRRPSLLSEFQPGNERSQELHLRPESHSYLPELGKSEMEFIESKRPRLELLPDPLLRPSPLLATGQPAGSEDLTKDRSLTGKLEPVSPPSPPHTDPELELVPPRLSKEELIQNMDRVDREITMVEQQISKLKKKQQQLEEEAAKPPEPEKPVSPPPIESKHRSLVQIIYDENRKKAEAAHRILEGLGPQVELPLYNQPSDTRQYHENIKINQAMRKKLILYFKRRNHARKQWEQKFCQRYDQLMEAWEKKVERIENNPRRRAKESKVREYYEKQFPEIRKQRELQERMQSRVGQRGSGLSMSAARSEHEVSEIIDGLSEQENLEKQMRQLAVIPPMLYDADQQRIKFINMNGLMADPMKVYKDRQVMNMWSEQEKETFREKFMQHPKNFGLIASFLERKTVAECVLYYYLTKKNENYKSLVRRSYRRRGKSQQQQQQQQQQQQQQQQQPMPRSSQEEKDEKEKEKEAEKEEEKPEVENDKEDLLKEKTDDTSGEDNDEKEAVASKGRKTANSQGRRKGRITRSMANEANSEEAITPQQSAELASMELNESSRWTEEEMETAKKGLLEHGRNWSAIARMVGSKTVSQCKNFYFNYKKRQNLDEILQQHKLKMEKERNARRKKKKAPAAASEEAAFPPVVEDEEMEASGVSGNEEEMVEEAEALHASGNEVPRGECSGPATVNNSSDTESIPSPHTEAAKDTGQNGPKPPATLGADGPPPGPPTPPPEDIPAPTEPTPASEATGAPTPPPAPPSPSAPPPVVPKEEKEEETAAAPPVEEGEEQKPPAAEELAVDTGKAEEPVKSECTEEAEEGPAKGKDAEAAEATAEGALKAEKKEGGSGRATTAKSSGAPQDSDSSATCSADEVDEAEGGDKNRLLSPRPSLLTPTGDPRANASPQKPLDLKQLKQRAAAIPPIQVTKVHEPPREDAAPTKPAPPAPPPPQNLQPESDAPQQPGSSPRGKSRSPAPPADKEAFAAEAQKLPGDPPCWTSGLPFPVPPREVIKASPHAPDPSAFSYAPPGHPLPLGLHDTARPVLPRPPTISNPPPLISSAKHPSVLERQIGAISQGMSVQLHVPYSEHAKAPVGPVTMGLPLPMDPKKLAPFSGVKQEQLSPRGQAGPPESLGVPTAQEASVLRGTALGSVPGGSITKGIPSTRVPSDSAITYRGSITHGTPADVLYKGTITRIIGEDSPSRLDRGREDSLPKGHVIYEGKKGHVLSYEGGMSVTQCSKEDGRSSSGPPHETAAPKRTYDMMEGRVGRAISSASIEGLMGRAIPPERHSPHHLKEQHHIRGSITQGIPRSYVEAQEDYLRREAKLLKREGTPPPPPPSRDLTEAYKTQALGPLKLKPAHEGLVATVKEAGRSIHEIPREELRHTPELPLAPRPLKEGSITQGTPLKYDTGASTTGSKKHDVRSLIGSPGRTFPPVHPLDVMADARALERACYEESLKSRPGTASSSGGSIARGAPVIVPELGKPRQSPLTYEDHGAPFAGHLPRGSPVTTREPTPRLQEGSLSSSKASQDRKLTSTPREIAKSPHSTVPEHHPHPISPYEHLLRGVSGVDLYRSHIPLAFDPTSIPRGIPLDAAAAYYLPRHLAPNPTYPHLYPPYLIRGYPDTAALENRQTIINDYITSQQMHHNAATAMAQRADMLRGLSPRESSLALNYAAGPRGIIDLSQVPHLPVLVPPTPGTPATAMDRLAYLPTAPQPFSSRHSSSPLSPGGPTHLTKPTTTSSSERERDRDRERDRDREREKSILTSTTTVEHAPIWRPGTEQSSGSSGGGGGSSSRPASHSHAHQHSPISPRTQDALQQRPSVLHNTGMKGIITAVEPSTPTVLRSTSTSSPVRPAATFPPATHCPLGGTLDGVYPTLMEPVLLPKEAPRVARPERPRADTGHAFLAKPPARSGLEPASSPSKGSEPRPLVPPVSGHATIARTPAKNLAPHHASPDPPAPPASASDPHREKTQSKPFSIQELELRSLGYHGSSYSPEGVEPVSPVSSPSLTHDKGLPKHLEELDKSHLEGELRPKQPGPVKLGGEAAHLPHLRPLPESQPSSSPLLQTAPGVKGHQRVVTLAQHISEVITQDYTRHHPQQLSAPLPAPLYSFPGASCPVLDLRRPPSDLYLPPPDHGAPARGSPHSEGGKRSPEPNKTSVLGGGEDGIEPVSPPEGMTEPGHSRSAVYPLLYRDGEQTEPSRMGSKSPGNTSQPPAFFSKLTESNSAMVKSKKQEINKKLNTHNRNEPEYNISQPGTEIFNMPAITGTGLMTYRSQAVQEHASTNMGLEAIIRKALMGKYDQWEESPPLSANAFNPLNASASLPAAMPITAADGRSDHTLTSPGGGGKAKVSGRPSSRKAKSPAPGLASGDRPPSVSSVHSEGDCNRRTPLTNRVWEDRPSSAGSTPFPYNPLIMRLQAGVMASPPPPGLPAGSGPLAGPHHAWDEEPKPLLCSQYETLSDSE
Data set [5] addresses Bifunctional protein GlmU (Mycobacterium tuberculosis, UniProt P9WMN3). As to the kind of experiment: Inhibitors of Mycobacterial Glucosamine-1-phosphate acetyl transferase (GlmU). Secondary screen. More on the design: species or system Mycobacterium tuberculosis H37Rv.
Data set [6] concerns the target FAD-linked sulfhydryl oxidase ALR (Homo sapiens, UniProt P55789). In words: inhibitors of human ALR sulfhydryl oxidase, dose response, biochemical, H2O2 detection, luminescence, cherry-pick (AID 493248).
In a further data set the target is T5, Cysteine protease ATG4B (Homo sapiens, UniProt Q9Y4P1).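 Further: Fluorescence-based dose-response confirmation assay measuring inhibition of ATG4B activity.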
T5 sequence (Q9Y4P1 whole entry): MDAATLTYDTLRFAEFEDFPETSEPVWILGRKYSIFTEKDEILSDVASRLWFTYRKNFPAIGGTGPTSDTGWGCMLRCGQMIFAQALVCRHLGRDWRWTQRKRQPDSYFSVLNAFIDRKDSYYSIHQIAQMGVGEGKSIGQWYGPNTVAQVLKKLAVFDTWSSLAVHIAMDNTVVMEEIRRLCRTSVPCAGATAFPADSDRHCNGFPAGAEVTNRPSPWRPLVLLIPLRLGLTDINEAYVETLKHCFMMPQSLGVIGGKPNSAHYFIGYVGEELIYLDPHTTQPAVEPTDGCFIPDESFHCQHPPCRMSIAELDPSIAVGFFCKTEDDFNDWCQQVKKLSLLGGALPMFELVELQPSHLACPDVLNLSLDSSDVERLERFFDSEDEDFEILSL
It is filed as functional.

The next data set deals with Phospholipase A2 (Homo sapiens, UniProt P04054). It is filed as functional.
A short description of data set [7]: Artemis endonuclease inhibitor potency, dose response, biochemical, fluorescence intensity (AID 720701).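 Further: Artemis endonuclease enzyme.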 The data set is classed as functional.
Data set [8] is described as follows: Luminescence Cell-Based Dose Response to Identify Activators of 5'UTR Stem-Loop Driven Prion Protein mRNA Translation in H4-C Neuroglioblastoma Cells. [Related pubchem assays: 1829 (Project Summary), 1814 (Primary HTS)]. The data set is classed as functional.
The nature of data set [9]: Luminescence Cell-Based Dose Confirmation HTS to Identify Activators of 5'UTR Stem-Loop Driven Alpha-Synuclein mRNA Translation in H4 Neuroglioblastoma Cells. [Related pubchem assays: 1829 (Project Summary), 1814 (Primary HTS)]. The data set is classed as functional.
A short description of data set [10]: Luminescence Cell-Based Dose Response HTS to Identify Activators of Luciferase Translation or Activity in H4 […] Cells. [Related pubchem assays: 1829 (Project Summary), 1814 (Primary HTS)]. It is filed as functional.
The test system of a further data set is H4. In words: Luminescence Cell-Based Dose Response HTS to Identify Activators of 5'UTR Stem-Loop Driven Prion Protein mRNA Translation in H4 Neuroglioblastoma Cells. [Related pubchem assays: 1829 (Project Summary), 1814 (Primary HTS)]. It is filed as functional. Conditions: Homo sapiens.
The nature of data set [11]: Luminescence Cell-Based Dose Response to Identify Activators of Luciferase Translation or Activity in H4-C Neuroglioblastoma Cells. [Related pubchem assays: 1829 (Project Summary), 1814 (Primary HTS)]. The data set is classed as functional.
The target of data set [12] is Heat shock protein HSP 90-alpha (Homo sapiens, UniProt P07900). As to the kind of experiment: Luminescence-based dose response biochemical high throughput screening assay for inhibitors of the Heat Shock Protein 90 (HSP90). [Related pubchem assays: 1831 (Summary AID.), 1846 (Confirmation screen.), 1789 (Primary screen.)].
Data set [13] in a line: Luminescence Cell-Based Dose Confirmation to Identify Activators of 5'UTR Stem-Loop Driven Alpha-Synuclein mRNA Translation in H4 Neuroglioblastoma Cells. [Related pubchem assays: 1829 (Project Summary), 1814 (Primary HTS)]. The data set is classed as functional.
For data set [14], the target named is Peroxisome proliferator-activated receptor gamma/Nuclear receptor coactivator 1 (Homo sapiens, UniProt P37231). As to the kind of experiment: TR-FRET dose response biochemical High Throughput Screening assay for agonists of the steroid receptor coactivator 1 (SRC-1) recruitment by the peroxisome proliferator-activated receptor gamma (PPAR gamma): non-selective agonists. [Related pubchem assays (depositor defined):AID1300, AID1808, AID504735, AID631]. The data set is classed as protein assay. (In general: In TR-FRET formats the signal depends on donor and acceptor labels being close together.)

The target of data set [15] is Peroxisome proliferator-activated receptor gamma/Nuclear receptor coactivator 3 (Homo sapiens, UniProt P37231). As to the kind of experiment: TR-FRET dose response biochemical High Throughput Screening assay for agonists of the steroid receptor coactivator 3 (SRC-3) recruitment by the peroxisome proliferator-activated receptor gamma (PPAR gamma): non-selective agonists. [Related pubchem assays: 1301 (Confirmation screen.), 1048 (Primary screen.)]. It is filed as functional.

Data set [16] addresses Protein-tyrosine kinase 2-beta (Homo sapiens, UniProt Q14289).
Data set [17] addresses T4, Peroxisome proliferator-activated receptor gamma/Nuclear receptor corepressor 2. In words: Counterscreen for NR2E3 inverse agonists: TR-FRET-based biochemical high throughput dose response assay to identify inverse agonists of the interaction between peroxisome proliferator-activated receptor gamma (PPARg) and nuclear receptor co-repressor 2 (NCOR2). The data set is classed as functional.

In data set [18] the target is T1, Photoreceptor-specific nuclear receptor. In words: NR2E3 inverse agonists, dose response, biochemical, TR-FRET (AID 463256). It is filed as functional.
Data set [19] concerns the target Peroxisome proliferator-activated receptor gamma/Nuclear receptor coactivator 2 (Homo sapiens, UniProt P37231). As to the kind of experiment: TR-FRET dose response biochemical High Throughput Screening assay for agonists of the steroid receptor coactivator 2 (SRC-2) recruitment by the peroxisome proliferator-activated receptor gamma (PPAR gamma): non-selective agonists. [Related pubchem assays: 1297, 1032 ]. The data set is classed as functional.

A short description of data set [20]: M. tuberculosis growth inhibition, HTS (AID 449762). It is filed as functional.
In a further data set the target is Ephrin type-A receptor 4 (Mus musculus, UniProt Q03137). In words: inhibitors of EphA4 binding to KYL peptide, primary screen, biochemical, colorimetric, mouse EphA4 (AID 689). It is filed as functional.
For data set [21], the target named is Mitogen-activated protein kinase 10 (Homo sapiens, UniProt P53779). In words: Dose response biochemical screening assay for inhibitors of c-Jun N-Terminal Kinase 3 (JNK3). [Related pubchem assays: 746 ].
A further data set addresses Cytochrome P450 3A4 (Homo sapiens, UniProt P08684).
The target in another data set is Cytochrome P450 2D6 (Homo sapiens, UniProt P10635).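 Further: CYP2D6 member of a cytochrome P450 panel assay.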
Data set [22] addresses Sphingosine 1-phosphate receptor 2 (Homo sapiens, UniProt O95136). In words: Dose Response Cell Based Assay for Antagonists of the S1P2 Receptor. [Related pubchem assays: 856, 736 ]. It is filed as functional.
Data set [23] concerns Streptococcus sp. 'group A'. As to the kind of experiment: growth inhibition of control SK(-) GAS strain, dose response, counter-screen for streptokinase expression inhibitor project, luminescence, kanamycin, BacTiterGlo, confirmation (AID 1900). The data set is classed as functional, organism-based.
A further data set addresses T6, Streptokinase A (Streptococcus pyogenes serotype M1, UniProt P10520).
T6 sequence (P10520 whole entry): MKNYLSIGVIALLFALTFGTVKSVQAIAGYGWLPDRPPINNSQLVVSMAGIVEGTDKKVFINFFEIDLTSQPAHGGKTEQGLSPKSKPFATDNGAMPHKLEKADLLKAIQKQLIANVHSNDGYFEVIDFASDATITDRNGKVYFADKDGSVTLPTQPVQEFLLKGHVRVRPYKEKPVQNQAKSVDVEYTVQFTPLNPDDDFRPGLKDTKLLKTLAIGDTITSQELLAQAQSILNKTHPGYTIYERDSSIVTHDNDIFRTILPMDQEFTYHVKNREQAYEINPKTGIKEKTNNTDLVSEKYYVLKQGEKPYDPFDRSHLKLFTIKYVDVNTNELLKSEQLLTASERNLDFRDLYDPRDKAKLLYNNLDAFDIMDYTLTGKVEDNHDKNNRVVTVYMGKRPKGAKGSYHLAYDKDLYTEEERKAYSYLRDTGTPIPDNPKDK
In words: S. pyogenes streptokinase expression inhibitors, potency, dose response, plasminogen activation absorbance, OD405 (AID 1914).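 Further: secreted streptokinase activity via plasminogen activation per viability signal from cell pellet.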 The data set is classed as functional, Streptococcus pyogenes M1 GAS.

The subject of another data set is Streptococcus. As to the kind of experiment: Group A Streptococcus viability loss, dose response, counter-screen for streptokinase expression inhibitor project, luminescence, BacTiterGlo (AID 1915).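 Further: potency for reduction of bacterial viability or growth.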 The data set is classed as functional, organism-based. A general note: A counterscreen serves to expose hits that act by an unwanted route or on another target.
For data set [24], the target named is E3 ubiquitin-protein ligase Mdm2 (Homo sapiens, UniProt Q00987). In words: enhancers of MDM2-luciferase reporter signal, concentration-effect titration, project on inhibitors of MDM2 ubiquitin ligase, cellular assay, luminescent readout, 384-well plate format (AID 1394).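 Further: MDM2 E3 inhibitors raise luminescence so EC50 is for signal enhancement.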 It is filed as functional.

The source made the active and inactive calls. A value given as a limit tells only on which side of the number the result lay.

T1 sequence (Q9Y5X4 whole entry): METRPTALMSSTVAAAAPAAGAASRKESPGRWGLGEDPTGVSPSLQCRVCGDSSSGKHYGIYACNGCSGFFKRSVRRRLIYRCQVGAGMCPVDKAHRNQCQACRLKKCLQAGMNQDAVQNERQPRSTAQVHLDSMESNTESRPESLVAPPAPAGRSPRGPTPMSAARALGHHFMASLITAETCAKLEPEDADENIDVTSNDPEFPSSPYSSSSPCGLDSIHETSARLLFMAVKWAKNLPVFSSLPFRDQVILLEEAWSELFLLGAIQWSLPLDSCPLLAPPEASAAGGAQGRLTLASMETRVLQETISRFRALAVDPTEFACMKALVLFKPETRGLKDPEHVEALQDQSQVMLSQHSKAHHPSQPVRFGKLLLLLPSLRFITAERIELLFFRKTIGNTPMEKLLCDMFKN
Protein-tyrosine kinase 2-beta, sequence (Q14289 whole entry): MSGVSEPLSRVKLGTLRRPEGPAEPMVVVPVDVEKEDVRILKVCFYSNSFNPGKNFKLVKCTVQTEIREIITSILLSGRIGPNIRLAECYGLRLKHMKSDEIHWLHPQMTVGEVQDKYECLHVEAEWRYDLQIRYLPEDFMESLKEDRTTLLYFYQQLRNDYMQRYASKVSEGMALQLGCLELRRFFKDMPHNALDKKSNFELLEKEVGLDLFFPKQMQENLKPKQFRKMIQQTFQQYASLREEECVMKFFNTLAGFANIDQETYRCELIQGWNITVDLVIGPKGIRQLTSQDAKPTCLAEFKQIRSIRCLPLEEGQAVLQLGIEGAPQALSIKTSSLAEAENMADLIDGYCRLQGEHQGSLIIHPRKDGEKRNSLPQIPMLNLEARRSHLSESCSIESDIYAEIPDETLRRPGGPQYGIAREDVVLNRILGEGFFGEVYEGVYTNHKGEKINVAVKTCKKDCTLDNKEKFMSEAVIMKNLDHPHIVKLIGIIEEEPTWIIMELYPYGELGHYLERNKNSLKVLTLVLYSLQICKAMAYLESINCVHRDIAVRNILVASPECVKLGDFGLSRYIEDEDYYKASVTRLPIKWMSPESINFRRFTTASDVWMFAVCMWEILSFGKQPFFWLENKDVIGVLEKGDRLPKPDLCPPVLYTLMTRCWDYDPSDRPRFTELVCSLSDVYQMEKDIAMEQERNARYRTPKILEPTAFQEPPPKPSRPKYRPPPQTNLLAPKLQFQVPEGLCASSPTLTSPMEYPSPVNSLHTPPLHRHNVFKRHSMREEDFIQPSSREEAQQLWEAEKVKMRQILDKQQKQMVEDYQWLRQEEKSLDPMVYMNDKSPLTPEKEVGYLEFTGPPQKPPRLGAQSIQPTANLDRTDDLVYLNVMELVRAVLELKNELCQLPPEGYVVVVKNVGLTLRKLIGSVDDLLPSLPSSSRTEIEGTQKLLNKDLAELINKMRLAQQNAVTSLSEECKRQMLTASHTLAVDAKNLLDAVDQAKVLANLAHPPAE

The term IC50 denotes the concentration that gives 50% inhibition. As a reminder, the AC50 is the concentration at which the activity in the assay is half-maximal. `O=C(O)c1cc(-c2ccco2)nc2ccc(Br)cc12`: the IC50 is > 39.8 µM (not active) in data set [1]; 78.6 µM (active) at Large T antigen; 47.6 µM (not active) against Estrogen receptor; 9.82 µM (active) on Estrogen receptor beta [2]; < 0.023 µM (not active) against Estrogen receptor beta [3]; 1.38 µM (active) in data set [4]. Also, the half-inhibitory concentration (IC50) in data set [5] was 81.9 µM (active); at Cysteine protease ATG4B, 9.96 µM (active); at Phospholipase A2, 12.2 µM (active); in data set [7], > 20 µM (inactive). For the same molecule, in data set [6], the AC50 was 0.785 µM (active).
The term EC50 denotes the midpoint of the concentration-response curve. For `CCOC(=O)c1sc(NC(=O)c2ccc(C)o2)nc1C`, the concentration for a half-maximal effect (EC50) in data set [8] was 0.541 µM (active); in [9], 0.306 µM (active); in data set [10], < 0.1 µM (inconclusive); with H4, 3.76 µM (active); in data set [11], 0.421 µM (active); in data set [13], 0.793 µM (active). Further, in data set [12], the IC50 is 6.55 µM (active).
As to `COc1ccc(C(=O)Nc2nc3ccc4nc(C)sc4c3s2)cc1`, the EC50 was 45.2 µM (inactive) in data set [14], 58.7 µM (not active) in [15] and 37.9 µM (not active) in data set [19]. In addition, the concentration for half-maximal inhibition (IC50) in data set [16] was 1.45 µM (active); in data set [17], 2.19 µM (active); in [18] it was 0.862 µM (active).
In the case of `O=C(N/N=C/c1c(F)c(F)c(F)c(F)c1F)c1cccc(S(=O)(=O)N2CCOCC2)c1`, the half-inhibitory concentration (IC50) in data set [20] is > 100 µM (active).
Turning to `Cc1occc1-c1nnc(SCC(=O)Nc2ccccc2-c2ccccc2)n1C`, the IC50 at Ephrin type-A receptor 4 is listed as > 100 µM (not active).
Consider `CCOC(=O)c1cccc2c1-c1ccccc1/C2=N/O`, for which the results for the IC50 in [16] and in data set [21] were 7.48 µM (active) and 11.5 µM (not active), respectively. Besides, the values for the AC50 at Cytochrome P450 3A4 and at Cytochrome P450 2D6 were 28.2 µM (inconclusive) and “inconclusive”, respectively.
As for `Cc1nn(-c2ccccc2)c2c1C(c1ccc(O)c(O)c1)N1C(=N2)C(Nc2ccccc2)=Nc2ccccc21` (stereo unspecified), in data set [22], the half-maximal inhibitory concentration (IC50) was 4.68 µM (active). The 50% effective concentration (EC50) in [23] is 0.772 µM (active); at Streptokinase A, 1.53 µM (active); in the data set with Streptococcus, 5.88 µM (active). Also, the AC50 at Cytochrome P450 3A4 was 14.1 µM (inconclusive).
For `COc1ccc(OC)c(CNn2c(-c3ccccc3F)nc3ccccc3c2=O)c1`, the concentration for a half-maximal effect (EC50) in data set [24] is on record as 85 µM (not active).

The values are drawn from ChEMBL document CHEMBL1201862, “PubChem BioAssay data set” (2004).
